Measurements taken from patent US8575197B2, “Pyrolinone derivative and pharmaceutical composition comprising the same” (Shionogi & Co., Ltd., priority 2008, dated 2013).

Target: human P2X3 receptor (Homo sapiens (Human), UniProt P56373)
Assay: P2X3 receptor inhibition, ATP-evoked Fluo-3 calcium fluorescence (FDSS 3000)
Type: cell-based
Conditions: C6BU-1 cell transfected with human P2X3 receptor gene; ATP-evoked Fluo-3 fluorescence
Summary of the method: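 C6BU-1 cells stably transfected with human P2X3, loaded with 4 μM Fluo-3-AM for 1 h at 37 °C in HEPES buffer pH 7.5 with probenecid. Compound added 5 min before 40 nM ATP solution; fluorescence followed 3 min. IC50 from ratio of peak post-ATP to baseline fluorescence.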

human P2X3 receptor, sequence (P56373 whole entry): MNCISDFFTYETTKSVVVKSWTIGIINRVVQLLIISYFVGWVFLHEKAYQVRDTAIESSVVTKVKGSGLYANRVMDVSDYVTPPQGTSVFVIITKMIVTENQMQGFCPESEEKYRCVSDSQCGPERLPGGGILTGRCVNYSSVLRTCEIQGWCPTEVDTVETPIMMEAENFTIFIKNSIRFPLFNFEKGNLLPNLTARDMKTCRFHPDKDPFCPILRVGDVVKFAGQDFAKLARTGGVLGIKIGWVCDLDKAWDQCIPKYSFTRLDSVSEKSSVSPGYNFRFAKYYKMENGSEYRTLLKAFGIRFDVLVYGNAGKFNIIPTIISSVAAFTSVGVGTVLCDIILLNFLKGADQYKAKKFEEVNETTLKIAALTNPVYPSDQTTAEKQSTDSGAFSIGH

Row | Structure (SMILES) | IC50 [nM]
1 | COCCOc1ncccc1C1c2c(n[nH]c2C(C)C)C(=O)N1c1ccc(-c2nc(C)no2)cc1 (centres unmarked) [II-281] | 664
2 | COCOc1ccccc1C1C(C(=O)CC(C)C)=C(O)C(=O)N1c1ccc(-c2ccc(C)s2)cc1 (centres unmarked) [Compound I-305] | 20
3 | COCCCOc1ncccc1C1C(C(=O)C(C)C)=C(O)C(=O)N1c1ccc(-c2csc(C)c2)cc1 (centres unmarked) [Compound I-571] | 60
4 | CCC(CC)C1C(C(=O)c2ccc(C(=O)N(C)C)cc2)=C(O)C(=O)N1c1ccc(-c2noc(C)n2)cc1 (centres unmarked) [Compound I-002] | 24
5 | COc1ncccc1C1c2c(C(C)(C)C)n[nH]c2C(=O)N1c1ccc(-c2ccoc2)nc1 (centres unmarked) [II-269] | 363
6 | CNC(=O)COc1ccccc1C1c2c(C(C)C)n[nH]c2C(=O)N1c1ccc(-c2ccsc2)cc1 (centres unmarked) [II-049] | 11
7 | COc1ncccc1C1c2c(C(C)(C)C)n[nH]c2C(=O)N1c1ccc(-c2cccs2)cc1 (centres unmarked) [II-224] | 31
8 | COc1ccccc1C1c2c(C(C)(C)C(=O)O)n[nH]c2C(=O)N1c1ccc(-c2ccsc2)cc1 (centres unmarked) [II-165] | 41
9 | Cc1cc(-c2ccc(N3C(=O)C(O)=C(C(=O)CC(C)C)C3c3ccccc3OC(C)C)cc2)on1 (centres unmarked) [Compound I-370] | 194
10 | CCCc1ccc(N2C(=O)c3[nH]nc(C(C)(C)C)c3C2c2ccccc2OC)cc1 (centres unmarked) [II-001] | 104
11 | CC(C)C(=O)C1=C(O)C(=O)N(c2ccc(-c3cccs3)cc2)C1c1ccccc1OCCO (centres unmarked) [Compound I-223] | 12
12 | CN(C)CCOc1ccccc1C1c2c(C(C)(C)C)n[nH]c2C(=O)N1c1ccc(-c2ccon2)cc1 (centres unmarked) [II-030] | 128
13 | Cc1nc(-c2ccc(N3C(=O)C(O)=C(C(=O)CC(C)C)C3c3ccccc3OC(F)F)cc2)no1 (centres unmarked) [Compound I-318] | 328
14 | CC(C)C(=O)C1=C(O)C(=O)N(c2ccc(-c3ccsc3)cc2)C1c1ccccc1C(F)(F)F (centres unmarked) [Compound I-300] | 114
15 | CC(C)c1n[nH]c2c1C(c1ccccc1OCCN(C)C)N(c1ccc(-c3ccsc3)cc1)C2=O (centres unmarked) [II-078] | 16
16 | CCOCOc1ccccc1C1C(C(=O)C(C)C)=C(O)C(=O)N1c1ccc(-c2noc(C)n2)cc1 (centres unmarked) [Compound I-542] | 58
17 | CC(C)(C)C(=O)C1=C(O)C(=O)N(c2ccc(-c3ccoc3)cc2)C1c1cccnc1OCCO (centres unmarked) [Compound I-165] | 95
18 | CC(C)c1n[nH]c2c1C(c1ccccc1C(N)=O)N(c1ccc(-c3ccsc3)cc1)C2=O (centres unmarked) [II-090] | 2
19 | COCCOc1ccccc1C1c2c(C(C)(C)C)n[nH]c2C(=O)N1c1ccc(-c2ccon2)cc1 (centres unmarked) [II-018] | 22
20 | CC(C)(C)c1n[nH]c2c1C(c1ccccc1OCC#N)N(c1ccc(-c3ccon3)cc1)C2=O (centres unmarked) [II-108] | 15
21 | CCOC(=O)C1c2c(C(C)C)n[nH]c2C(=O)N1c1ccc(-c2ccsc2)cc1 (centres unmarked) [II-183] | 460
22 | Cc1nc(-c2ccc(N3C(=O)C(O)=C(C(=O)c4cc[nH]c4)C3C3CCCCC3)cc2)no1 (centres unmarked) [Compound I-555] | 579
23 | Cc1cc(-c2ccc(N3C(=O)C(O)=C(C(=O)C(C)C)C3c3ccccc3C(=O)N(C)C)cc2)cs1 (centres unmarked) [Compound I-409] | 177
24 | COc1ccccc1C1C(C(=O)C(C)C)=C(O)C(=O)N1c1ccc(-c2cscn2)cc1 (centres unmarked) [Compound I-416] | 322
25 | COc1ncccc1C1C(C(=O)C(C)C)=C(O)C(=O)N1c1ccc(-c2ccc(C)s2)cc1 (centres unmarked) [Compound I-332] | 281

Row | Structure (SMILES) | IC50 [nM]
26 | Cc1ccc(-c2ccc(N3C(=O)C(O)=C(C(=O)CC(C)C)C3c3ccccc3OC(F)(F)F)cc2)s1 (centres unmarked) [Compound I-338] | 147
27 | CC(C)(C)c1n[nH]c2c1C(c1cccnc1OCCO)N(c1ccc(-c3ccoc3)cc1)C2=O (centres unmarked) [II-041] | 27
28 | CC(C)c1n[nH]c2c1C(c1ccccc1OCC(N)=O)N(c1ccc(-c3ccsc3)cc1)C2=O (centres unmarked) [II-050] | 7
29 | CC(C)(C)c1n[nH]c2c1C(c1ccccc1OCCO)N(c1ccc(-c3nccs3)cc1)C2=O (centres unmarked) [II-014] | 17
30 | COCCOc1ncccc1C1C(C(=O)C(C)(C)C)=C(O)C(=O)N1c1ccc(-c2ccoc2)cc1 (centres unmarked) [Compound I-164] | 74
31 | COc1ccccc1C1c2c(C(C)(C)C)n[nH]c2C(=O)N1c1ccc(C(C)(C)C)cc1 (centres unmarked) [II-003] | 140
32 | COCCOc1ccccc1C1C(C(=O)CC(C)C)=C(O)C(=O)N1c1ccc(-c2ccsc2)cc1 (centres unmarked) [Compound I-251] | 17
33 | CC(C)c1n[nH]c2c1C(c1ccccc1OCC#N)N(c1ccc(-c3ccsc3)cc1)C2=O (centres unmarked) [II-127] | 4
34 | COCOc1ccccc1C1C(C(=O)CC(C)C)=C(O)C(=O)N1c1ccc(-c2csc(C)c2)cc1 (centres unmarked) [Compound I-372] | 35
35 | COc1ncccc1C1c2c(C(C)(C)C)n[nH]c2C(=O)N1c1ccc(Br)cn1 (centres unmarked) [II-259] | 410
36 | COCCOc1ccccc1C1C(C(=O)CC(C)C)=C(O)C(=O)N1c1ccc(SC)cc1 (centres unmarked) [Compound I-435] | 82
37 | COC(=O)COCc1ncccc1C1c2c(C(C)(C)C)n[nH]c2C(=O)N1c1ccc(-c2ccsc2)cc1 (centres unmarked) [II-128] | 216
38 | CC(C)C(=O)C1=C(O)C(=O)N(c2ccc(-c3ccsc3)cc2)C1c1cccnc1OCC(=O)O (centres unmarked) [Compound I-195] | 235
39 | CC(C)CC(=O)C1=C(O)C(=O)N(c2ccc(-c3ccoc3)cc2)C1c1ccccc1OC(F)F (centres unmarked) [Compound I-342] | 67
40 | COCCOc1cc(F)ccc1C1C(C(=O)C(C)C)=C(O)C(=O)N1c1ccc(-c2noc(C)n2)cc1 (centres unmarked) [Compound I-369] | 91
41 | COc1ccccc1C1C(C(=O)C(C)C)=C(O)C(=O)N1c1ccc(-c2ccsc2)c(N)c1 (centres unmarked) [Compound I-237] | 705
42 | COc1ccccc1C1c2c(C(C)(C)C(=O)O)n[nH]c2C(=O)N1c1ccc(-c2cccs2)cc1 (centres unmarked) [II-163] | 34
43 | COCCOc1ccccc1C1C(C(=O)C(C)C)=C(O)C(=O)N1c1ccc(-c2ccoc2)cc1 (centres unmarked) [Compound I-201] | 39
44 | C[S+]([O-])CCOc1ccccc1C1C(C(=O)C(C)(C)C)=C(O)C(=O)N1c1ccc(-c2ccon2)cc1 (centres unmarked) [Compound I-152] | 219
45 | COCCNC(=O)c1ncccc1C1C(C(=O)CC(C)C)=C(O)C(=O)N1c1ccc(-c2ccc(C)s2)cc1 (centres unmarked) [Compound I-581] | 466
46 | COCCOc1ccccc1C1C(C(=O)CC(C)C)=C(O)C(=O)N1c1ccc(-c2cscn2)cc1 (centres unmarked) [Compound I-421] | 191
47 | COCCOc1ncccc1C1C(C(=O)C(C)C)=C(O)C(=O)N1c1ccc(SC)cc1 (centres unmarked) [Compound I-485] | 218
48 | Cc1nc(-c2ccc(N3C(=O)c4[nH]nc(C(C)C)c4C3c3cccnc3OCCO)cc2)no1 (centres unmarked) [II-046] | 861
49 | COc1ncccc1C1c2c(C(C)(C)C)n[nH]c2C(=O)N1c1ccc(-c2ccco2)cn1 (centres unmarked) [II-263] | 108
50 | COc1ccccc1C1c2c(C(C)(C)C)n[nH]c2C(=O)N1c1ccc(-c2cccn2C)cc1 (centres unmarked) [II-205] | 811

Row | Structure (SMILES) | IC50 [nM]
51 | COc1ccc(C(=O)C2=C(O)C(=O)N(c3ccc(-c4cc(C)on4)cc3)C2c2ccccc2OC)cc1 (centres unmarked) [Compound I-480] | 42
52 | Cc1nc(-c2ccc(N3C(=O)C(O)=C(C(=O)C(C)C)C3c3ccccc3OC(F)F)cc2)no1 (centres unmarked) [Compound I-313] | 320
53 | COCCN(C)C(=O)c1ccccc1C1C(C(=O)CC(C)C)=C(O)C(=O)N1c1ccc(-c2csc(C)c2)cc1 (centres unmarked) [Compound I-497] | 36
54 | CC(C)CC(=O)C1=C(O)C(=O)N(c2ccc(-c3ccsc3)cc2)C1c1ccccc1C(=O)N(C)C (centres unmarked) [Compound I-405] | 31
55 | CC(C)(C)C(=O)C1=C(O)C(=O)N(c2ccc(-c3ccon3)cc2)C1c1ccccc1S(C)(=O)=O (centres unmarked) [Compound I-111] | 624
56 | COc1ccccc1C1c2c(C(C)(C)CO)n[nH]c2C(=O)N1c1nc2ccccc2s1 (centres unmarked) [II-139] | 332
57 | CC(C)(C)C(=O)C1=C(O)C(=O)N(c2ccc(-c3ccsc3)cc2)C1c1ccccc1OCC#N (centres unmarked) [Compound I-180] | 5
58 | COCc1ccccc1C1C(C(=O)CC(C)C)=C(O)C(=O)N1c1ccc(-c2ccsc2)cc1 (centres unmarked) [Compound I-252] | 10
59 | COCCOc1ccccc1C1C(C(=O)C(C)(C)C)=C(O)C(=O)N1c1ccc(-c2cccs2)cc1 (centres unmarked) [Compound I-123] | 13
60 | CC(C)c1n[nH]c2c1C(c1ccccc1NC(N)=O)N(c1ccc(-c3ccsc3)cc1)C2=O (centres unmarked) [II-087] | 9
61 | COc1ccccc1C1C(C(=O)C(C)C)=C(O)C(=O)N1c1ccc(SC)cc1 (centres unmarked) [Compound I-473] | 182
62 | Cc1ccc(-c2ccc(N3C(=O)C(O)=C(C(=O)C(C)C)C3c3ccccc3C(=O)N(C)C)cc2)s1 (centres unmarked) [Compound I-401] | 79
63 | CC(C)CC(=O)C1=C(O)C(=O)N(c2ccc(SC(F)(F)F)cc2)C1c1ccccc1OC(C)C (centres unmarked) [Compound I-447] | 128
64 | COCCOc1ccccc1C1c2c(C(C)(C)CO)n[nH]c2C(=O)N1c1ccc(-c2ccsc2)cc1 (centres unmarked) [II-130] | 4
65 | CSc1ccc(N2C(=O)c3[nH]nc(C(C)(C)C)c3C2c2cccnc2OCCO)cc1 (centres unmarked) [II-040] | 70
66 | COc1ccccc1C1C(C(=O)CC(C)C)=C(O)C(=O)N1c1ccc(C2=NCCS2)cc1 (centres unmarked) [Compound I-412] | 310
67 | CC(C)c1n[nH]c2c1C(c1cccnc1OCCO)N(c1ccc(-c3ccon3)cc1)C2=O (centres unmarked) [II-044] | 582
68 | COc1ccccc1C1C(C(=O)CC(C)C)=C(O)C(=O)N1c1ccc(-c2ccsc2)cc1 (centres unmarked) [Compound I-239] | 35
69 | Cc1ccc(-c2ccc(N3C(=O)C(O)=C(C(=O)CC(C)C)C3c3cccnc3C(=O)NCC#N)cc2)s1 (centres unmarked) [Compound I-577] | 47
70 | CCOc1ccccc1C1c2c(C(C)(C)C)n[nH]c2C(=O)N1c1ccc(-c2ccon2)cc1 (centres unmarked) [II-101] | 27
71 | COCCOc1ncccc1C1c2c(C(C)(C)C)n[nH]c2C(=O)N1c1ccc(-c2ccco2)cc1 (centres unmarked) [II-037] | 8
72 | CC(C)(C)c1n[nH]c2c1C(c1cccc[n+]1[O-])N(c1ccc(-c3ccon3)cc1)C2=O (centres unmarked) [II-058] | 494
73 | CC(C)(C)c1n[nH]c2c1C(c1cccc3c1OCO3)N(c1ccc(-c3ccon3)cc1)C2=O (centres unmarked) [II-006] | 245
74 | CN(C)C(=O)COc1ccccc1C1c2c(C(C)(C)C)n[nH]c2C(=O)N1c1ccc(-c2ccsc2)cc1 (centres unmarked) [II-166] | 7
